“Also recorded” adds a separate entry of the source. Where two headings read alike, the source gives them in different places.
Tests used:
[1] = tested on: GPVI platelet aggregation; experiment: GPVI (convulxin-induced) human platelet aggregation; type: cell-based
[2] = In vivo metabolism in plasma, bile and urine; parameters: species or system rats, dogs, and monkeys; conditions: bile, urine, preliminary
[3] = tested on: KrasG12D;Trp53R172H;Pdx1-Cre (KPC) derived pancreatic tumor; experiment: Orthotopic pancreatic cancer model (KPC-derived cell line); type: in vivo, C57BL/6 mice; conditions: oral 15 mg/kg
primary CLL cells = experiment: Rituximab ADCC, chromium release, primary CLL targets; type: cell-based, human; conditions: 1 μM; NK cells from CLL patients, autologous CLL cells
[4] = tested on: NK cells with trastuzumab-coated HER18 breast cancer cells; experiment: Trastuzumab-dependent NK cell degranulation (CD107a); type: cell-based, human; conditions: trastuzumab-stimulated
[5] = tested on: EGF receptor phosphorylation (p-EGFR), A431 cells; experiment: In vitro EGFR phosphorylation in A431 cells; type: cell-based, human; conditions: 10 μM
[6] = tested on: CD8 + T cells with B lymphoblast targets; experiment: Cytotoxic T cell (CTL) assay; type: cell-based; conditions: 500 nM, relative to vehicle
[7] = tested on: NK cells with rituximab-coated DHL4 lymphoma cells; experiment: Rituximab-dependent NK cell degranulation (CD107a); type: cell-based, human
[8] = tested on: NK cells (CD56+/CD107a+) with MEC-1 cells; experiment: Obinutuzumab-stimulated NK cell degranulation in whole blood; type: cell-based, human; conditions: obinutuzumab 1 μg/mL; 0.1, 1, 10 μM
[9] = tested on: B cell receptor (CD69 on CD19+ B cells); experiment: Inhibition of BCR signaling (CD69) on B cells in whole blood; type: cell-based; conditions: Homo sapiens, 18 h
[10] = tested on: KPC derived mouse pancreatic cancer cells; experiment: KPC-derived mouse pancreatic cancer cells injected into pancreas, Formula (II) and/or gemcitabine; type: in vivo; conditions: Formula (II) 15 mg/kg/BID oral; gemcitabine 15 mg/kg IV every 4 days x3
[11] = Cardiovascular function study in telemeterized dogs; type: in vivo, male beagle dogs; conditions: single doses through 30 mg/kg
[12] = Respiratory function study; type: in vivo, rats; conditions: doses through 300 mg/kg
A3 adenosine receptor = A3 adenosine receptor (Homo sapiens, UniProt P0DMS8)
Itk kinase = target: T1, Itk kinase (Homo sapiens, UniProt Q08881); experiment: Kinome screen, Itk; type: biochemical; conditions: see Table 2 (missing)
T1 construct: Life Technologies (performed the screen, or the value is from the literature)

[13] = Glutathione binding in vitro; type: in vitro ADME
CXCL12 and CCL2 = experiment: Plasma chemokines in treated CLL patients; type: in vivo, human
hepatocytes = experiment: Metabolism in hepatocytes with 14C-labeled Formula (II); type: in vitro ADME, mouse, rat, dog, rabbit, monkey, and human
CD4 + T cells = experiment: Th17 and Treg development of CD4+ T cells; type: cell-based
[14] = tested on: NK cells with trastuzumab-coated HER18 breast cancer cells; experiment: Trastuzumab-dependent NK cell IFN-γ secretion; type: cell-based, human; conditions: trastuzumab-stimulated
relapsed/refractory CLL = experiment: Clinical study of Formula (II) in relapsed/refractory CLL
[15] = tested on: PBMC subsets (MDSC, NK cells); experiment: Peripheral blood cell subsets in CLL patients by flow cytometry; type: in vivo, human; conditions: C1D28, C2D28
BTK = target: T2, BTK (Mus musculus, UniProt P35991); experiment: BTK occupancy in MDSCs of tumor bearing PDA mice; type: in vivo; conditions: 15 mg/kg BID, Day 8, 4 hours post dose, N=5
T2 construct: MDSCs were purified from tumor bearing PDA mice; from tissue; host or cells: granulocytic and monocytic MDSCs from tumor-bearing PDA mice

CYP3A4 = CYP3A4 (Homo sapiens, UniProt P08684); experiment: CYP metabolism (loss of parent drug); type: in vitro ADME; conditions: in vitro
[16] = tested on: KPC pancreatic tumors (KRAS, p53); experiment: KPC genetic pancreatic cancer model; type: in vivo, mouse
[17] = Functional observation battery; type: in vivo, rats; conditions: doses through 300 mg/kg
CD8 + T cells [18] = experiment: CD8+ T cell IFN-γ levels; type: cell-based; conditions: relative to vehicle
ID8 ovarian cancer = experiment: ID8 syngeneic orthotopic ovarian cancer model; type: in vivo, mouse; conditions: 15 mg/kg/BID oral
[19] = tested on: rituximab-coated Raji cells; experiment: Rituximab ADCC, chromium release, Raji targets; type: cell-based, human; conditions: 1 μM; healthy donor NK cells / Raji
CYP enzymes = experiment: Nonclinical CYP interaction studies; type: in vitro ADME
[20] = Brain and CSF pharmacokinetics in Sprague-Dawley rats; type: in vivo; conditions: rat
KrasLA2 NSCLC tumors = experiment: KrasLA2 genetic NSCLC model; type: in vivo, mouse
CD8 + T cells [21] = experiment: CD8+ T cell viability; type: cell-based; conditions: higher concentrations of ibrutinib; any concentration of Formula (II)
[22] = tested on: human platelet-mediated thrombosis; experiment: In vivo human platelet thrombus formation after laser injury in VWF HA1 mice; parameters: species or system human platelets in VWF HA1 mice
apoptotic B-CLL = experiment: Apoptosis of B-CLL cells in treated CLL patients; type: in vivo, human

T1 sequence (Q08881 whole entry): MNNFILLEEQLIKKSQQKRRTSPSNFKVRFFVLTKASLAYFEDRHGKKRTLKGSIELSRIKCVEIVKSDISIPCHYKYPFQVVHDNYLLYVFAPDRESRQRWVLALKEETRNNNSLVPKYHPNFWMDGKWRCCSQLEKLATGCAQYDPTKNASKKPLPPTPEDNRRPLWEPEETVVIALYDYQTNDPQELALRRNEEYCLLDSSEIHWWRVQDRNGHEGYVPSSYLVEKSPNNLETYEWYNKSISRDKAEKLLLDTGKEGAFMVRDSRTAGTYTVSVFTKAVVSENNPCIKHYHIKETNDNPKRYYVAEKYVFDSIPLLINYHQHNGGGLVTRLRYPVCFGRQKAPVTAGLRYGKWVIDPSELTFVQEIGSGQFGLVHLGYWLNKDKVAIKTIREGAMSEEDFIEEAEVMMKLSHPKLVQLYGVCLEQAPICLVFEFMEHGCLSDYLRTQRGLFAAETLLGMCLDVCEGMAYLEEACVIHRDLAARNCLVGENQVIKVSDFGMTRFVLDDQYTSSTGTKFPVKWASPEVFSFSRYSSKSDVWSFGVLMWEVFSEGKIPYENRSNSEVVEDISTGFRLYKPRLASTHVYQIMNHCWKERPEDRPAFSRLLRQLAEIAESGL
Chain of A3 adenosine receptor (P0DMS8 whole entry): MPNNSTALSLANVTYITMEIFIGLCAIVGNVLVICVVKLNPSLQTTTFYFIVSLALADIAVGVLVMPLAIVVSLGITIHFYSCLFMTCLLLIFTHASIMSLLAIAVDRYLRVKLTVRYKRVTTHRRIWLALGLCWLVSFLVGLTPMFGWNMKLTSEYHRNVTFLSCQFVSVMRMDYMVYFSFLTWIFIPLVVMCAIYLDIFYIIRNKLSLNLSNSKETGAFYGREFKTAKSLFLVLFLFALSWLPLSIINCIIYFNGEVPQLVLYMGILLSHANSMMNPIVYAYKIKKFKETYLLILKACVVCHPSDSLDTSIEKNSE
Chain of CYP3A4 (P08684 whole entry): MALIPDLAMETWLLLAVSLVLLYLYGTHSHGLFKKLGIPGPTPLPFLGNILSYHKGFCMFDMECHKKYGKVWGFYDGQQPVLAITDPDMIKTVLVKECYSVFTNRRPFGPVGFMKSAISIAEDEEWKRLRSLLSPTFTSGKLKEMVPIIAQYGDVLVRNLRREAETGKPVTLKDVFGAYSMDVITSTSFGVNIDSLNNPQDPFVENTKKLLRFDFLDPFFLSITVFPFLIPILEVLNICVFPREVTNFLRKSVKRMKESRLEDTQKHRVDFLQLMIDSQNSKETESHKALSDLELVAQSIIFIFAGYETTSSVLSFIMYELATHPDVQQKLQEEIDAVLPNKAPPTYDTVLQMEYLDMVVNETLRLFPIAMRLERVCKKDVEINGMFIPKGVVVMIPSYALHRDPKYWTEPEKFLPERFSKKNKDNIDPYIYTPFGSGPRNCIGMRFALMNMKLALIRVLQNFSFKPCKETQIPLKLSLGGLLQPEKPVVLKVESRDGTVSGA
T2 sequence (P35991 whole entry): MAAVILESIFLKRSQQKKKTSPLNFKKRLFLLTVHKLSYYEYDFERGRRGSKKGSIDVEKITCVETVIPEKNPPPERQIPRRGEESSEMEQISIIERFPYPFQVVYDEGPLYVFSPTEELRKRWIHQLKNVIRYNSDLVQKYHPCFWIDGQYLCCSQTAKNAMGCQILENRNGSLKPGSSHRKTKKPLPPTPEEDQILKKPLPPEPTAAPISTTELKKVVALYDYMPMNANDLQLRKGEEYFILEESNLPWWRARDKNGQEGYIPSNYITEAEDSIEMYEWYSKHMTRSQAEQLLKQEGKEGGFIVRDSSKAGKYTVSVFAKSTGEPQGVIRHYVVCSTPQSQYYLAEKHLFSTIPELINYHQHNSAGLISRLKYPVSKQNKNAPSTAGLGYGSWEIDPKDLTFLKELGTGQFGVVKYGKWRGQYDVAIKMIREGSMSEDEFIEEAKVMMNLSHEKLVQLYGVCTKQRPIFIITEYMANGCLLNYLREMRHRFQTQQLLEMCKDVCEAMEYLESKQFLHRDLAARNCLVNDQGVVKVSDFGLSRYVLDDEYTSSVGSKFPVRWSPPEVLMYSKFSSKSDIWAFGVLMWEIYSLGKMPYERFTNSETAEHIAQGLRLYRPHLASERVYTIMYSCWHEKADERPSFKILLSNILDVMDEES

CC#CC(=O)N1CCC[C@H]1c1nc(-c2ccc(C(=O)Nc3ccccn3)cc2)c2c(N)nccn12 [Formula (II), (<S)-4-(8-amino-3-(l-(but-2-ynoyl)pyrrolidin-2-yl)imidazo[l,5-a]pyrazin-l-yl)-N-(pyridin-2-yl)benzamide]
inhibition of GPVI platelet aggregation (in words) [1]: does not | IC50 ([1]; Homo sapiens, Platelet, read-out: IC50, GPVI platelet aggregation): 1150 nM | metabolic processes in vivo (in words) [2]: oxidation, glutathione binding, and hydrolysis | immature myeloid infiltrate (in words) [3]: decreased immature myeloid infiltrate | immunosuppressive tumor associated myeloid cells and Tregs (in words) [3]: reduce immunosuppressive tumor associated myeloid cells and Tregs | number of Tregs (in words) [3]: reduced the number of immunospressive Tregs | number of tumor associated macrophages (in words) [3]: reduced the number of tumor associated macrophages | tumor burden (in words) [3]: significantly reduced tumor burden | tumor volume (in words) ([3]; vs vehicle): statistically significant reductions in tumor volume | inhibition of rituximab ADCC (in words) (primary CLL cells): not inhibited | NK cell degranulation (in words) [4]: no inhibitory effect | inhibition of EGFR phosphorylation (in words) ([5]; A431): no inhibition | EGF-induced p-EGFR inhibition ([5]; 2 h, EGF 100 ng/mL 5 min): 7% | CD8+ T cell function as % cytotoxicity (in words) [6]: no effect on CD8 + T cell function | reduction of NK cell degranulation ([7]; rituximab-stimulated, 240 min): < 2% | NK cell degranulation (in words) ([7]; rituximab, Formula (II) 1 μM): did not inhibit | obinutuzumab-stimulated NK cell degranulation (in words) [8]: minimal effect | EC50 [9]: 8.2 nM | reduction in tumor size (in words) [10]: efficacy alone | cardiovascular/ECG/body temperature (in words) [11]: no meaningful changes in body temperature, cardiovascular, or electrocardiographic (ECG) (including QT interval) parameters | respiratory function (in words) [12]: no treatment-related adverse effects | activity in 80-target binding screen (in words) (A3 adenosine receptor): significant activity only against the A3 adenosine receptor | inhibition of Itk (in words) (Itk kinase): not a potent inhibitor of Itk kinase | glutathione binding (in words) [13]: binds to glutathione but does not deplete glutathione | CCL2 levels (in words) (CXCL12 and CCL2): significant decrease | CXCL12 levels (in words) (CXCL12 and CCL2): significant decrease | metabolites in hepatocytes (in words) (hepatocytes): two mono-oxidized metabolites and a glutathione conjugate; also recorded: No unique human metabolite was identified | Th17 development (in words) (CD4 + T cells): no adverse effects | Treg development (in words) (CD4 + T cells): no adverse effects | NK cell cytokine release (in words) [14]: no inhibitory effect | time to same median % change in SPD (relapsed/refractory CLL; CLL, compared with ibrutinib): 7 months | SPD change vs ibrutinib (in words) (relapsed/refractory CLL; FIG. 37): decreases more rapidly | absolute lymphocyte count (ALC) change vs ibrutinib (in words) (relapsed/refractory CLL; FIG. 37): much smaller relative increase and much faster decrease in absolute lymphocyte count (ALC) | adverse event grade (in words) (relapsed/refractory CLL; human, in vivo): only grade 1 AEs were observed | disease progression in 17p deletion patients (in words) (relapsed/refractory CLL; human, in vivo): no 17p patients have progressed | dose-limiting toxicities (in words) (relapsed/refractory CLL; human, in vivo): No DLTs were observed; also recorded: has not demonstrated any DLTs to date | lymphocytosis (in words) (relapsed/refractory CLL; human, in vivo): A lack of lymphocytosis | treatment-related serious adverse events (in words) (relapsed/refractory CLL; human, in vivo): No treatment-related serious adverse events (SAEs) were observed | MDSC (monocytic) change vs ALC (in words) [15]: patients with decreasing ALC % had increasing MDSC (monocytic) % | NK cell change vs ALC (in words) [15]: patients with decreasing ALC % had increasing NK cell % | BTK occupancy in granulocytic and monocytic MDSC (in words) (BTK): Complete BTK occupancy | CYP metabolism (in words) (CYP3A4): metabolized by CYP3A4 | survival at day 14 ([16]; 15 mg/kg BID oral): 6/6 | survival at day 28 ([16]; 15 mg/kg BID oral): 5/6 | tumor growth and survival (in words) ([16]; 15 mg/kg BID oral, combination with gemcitabine 50 mg/kg IV): substantially slowed pancreatic cancer growth and increased animal survival; also recorded: compared favorably with gemcitabine alone | tumor volume, day 28, average ([16]; 15 mg/kg BID oral, predose 165): 272 mm3 | CD8+ cells (in words) ([16]; tumor tissue): significant increase in CD8 + cells | MDSCs (Gr1+Ly6CHi) (in words) ([16]; tumor tissue): significantly reduced | TAMs (CD11b+Ly6ClowF4/80+Csf1r+) (in words) ([16]; tumor tissue): significantly reduced | Tregs (CD4+CD25+FoxP3+) (in words) ([16]; tumor tissue): significantly reduced | neurobehavioral effects / body temperature (in words) [17]: no adverse effects on neurobehavioral effects or body temperature | CD8+ T cell function as IFN-γ level (in words) (CD8 + T cells [18]): no effect on CD8 + T cell function | B cells (in words) (ID8 ovarian cancer): significant reduction in total B cells; also recorded: significant reduction in immunosuppressive B cells | B regulatory cells (Bregs) (in words) (ID8 ovarian cancer): significant reduction in B regulatory cells (Bregs) | CD8+ T cells (in words) (ID8 ovarian cancer): increase in CD8 + T cells | ID8 ovarian cancer growth (in words) (ID8 ovarian cancer): impairs ID8 ovarian cancer growth | tumor associated Tregs (in words) (ID8 ovarian cancer): significant reduction in immunosuppressive tumor associated Tregs | tumor-associated lymphocytes (in words) (ID8 ovarian cancer): significant reduction in immunosuppressive tumor-associated lymphocytes | inhibition of rituximab ADCC (in words) [19]: not inhibited | CYP drug-drug interaction potential (in words) (CYP enzymes): very unlikely to cause clinical drug-drug interactions | Kp at 0.5 h ([20]; brain, flushed brains, 5 or 30 mg/kg/day oral gavage, 30 min after dosing, read-out: brain concentration relative to matched plasma): 0.03 to 0.04 | Kp at 0.5 h ([20]; csf, 5 and 30 mg/kg/day oral gavage, read-out: CSF concentration relative to plasma): 0.01 to 0.02 | levels in brain and CSF (in words) ([20]; in vivo): crosses the blood-brain barrier; also recorded: low but detectable levels | number of tumors (in words) (KrasLA2 NSCLC tumors; 15 mg/kg): fewer overall tumors | tumor volumes vs vehicle (in words) (KrasLA2 NSCLC tumors; 15 mg/kg): significant decrease in tumor volumes | MDSCs (in words) (KrasLA2 NSCLC tumors; mouse, in vivo): significant reduction in immunosuppressive tumor associated MDSCs | TAMs (in words) (KrasLA2 NSCLC tumors; mouse, in vivo): significant reduction in immunosuppressive tumor associated TAMs | Tregs (in words) (KrasLA2 NSCLC tumors; mouse, in vivo): significant reduction in immunosuppressive tumor associated Tregs | CD8+ T cell viability (in words) (CD8 + T cells [21]): not observed | effect on thrombus formation (in words) [22]: does not interfere with thrombus formation; also recorded: no significant effect on human platelet-mediated thrombus formation | samples with baseline change in apoptosis greater than 25% (apoptotic B-CLL; cleaved PARP+, Caspase 3+, CD19+, CD5+): 82 % of samples | apoptosis of B-CLL (in words) (apoptotic B-CLL; human, in vivo): increased apoptotis

Source: patent WO2016087994A1, “Btk inhibitors to treat solid tumors through modulation of the tumor microenvironment” (dated 2016)
